Laboratory results: patent US20240270692A1, “S(+) FORM OF 4-(2,4-DIFLUOROPHENYL)-2-(1H-INDOL-3-YL)-4-OXO-BUTANOIC ACID” (TOHOKU UNIVERSITY, priority 2021, published 2024)
“Also recorded” adds a separate entry of the source.

Tests used:
[1] = test system: Rat fetal cardiomyoblast cells H9c2; test: Effect of suppressing DNA damage caused by camptothecin (γH2AX immunostaining); format: cell-based; details: camptothecin 10 μM plus compound 30 μM, cultured 24 hours
Method: Rat fetal cardiomyoblast cells H9c2 were maintained and cultured in a DMEM medium (10% FBS, penicillin at 100 units/mL, streptomycin at 100 μg/mL). Camptothecin (CPT) at a final concentration of 10 μM, CPT at a final concentration of 10 μM, and MA5 (racemic form, S(+) form, or R(−) form) at a final concentration of 30 μM, or DMSO (control) were added. The cells were cultured for 24 hours, then the medium was removed, and γH2AX (phosphorylated H2AX), which is an indicator for DNA damage, was detected by immunostaining. The immunostaining was carried out by using a mouse anti-γH2AX antibody (Thermo Fisher) as a primary antibody and a CF568-labeled goat anti-mouse IgG antibody (Biotium Inc.) as a secondary antibody.

[2] = In vivo administration test 2: oral administration, plasma concentrations; details: male cynomolgus monkeys, single dose 100 mg/kg
Method: Each enantiomer (S(+) form or R(−) form) of MA5 was dissolved in a mixed solution of physiological saline and 0.1 N sodium hydroxide (9:1), and filtered and sterilized by using a 0.22 μm filter to prepare a solution containing 2 mL/kg of each enantiomer of MA5. Next, the solution containing each enantiomer of MA5 was intravenously administered to each of three 4- to 5-year-old male cynomolgus monkeys at a single dose of 1 mg/kg. As a control, a solution containing no enantiomer of MA5 was also administered in the same manner. […] The analysis conditions for LC-MS/MS are as follows.
As an ionization unit, an apparatus in which NANOSPACESI-2 (manufactured by OSAKA SODA CO., LTD.) as a high-performance liquid chromatograph was connected to a triple quadrupole mass spectrometer (TSQ Quantum Ultra, manufactured by Thermo Fisher Scientific Inc.) equipped with an ESI probe was used. The S(+) form of MA5 (S-(+)-MA5) and the R(−) form of MA5 (R-(−)-MA5), which are substances to be analyzed, were subjected to quantitative analysis by the internal standard method using their respective stable isotopes S-(+)-MA5-d6 and R-(−)-MA5-d6. […]
The MS conditions were detected in negative ion mode, a spray voltage set to 2.5 kV, a vaporizer temperature set to 250° C., and an ion transfer tube temperature set to 250° C. […] Waveform analysis and quantitative calculation by the internal standard method were carried out by using Xcalibur (manufactured by Thermo Fisher Scientific Inc.).
In “3. […] Specifically, according to the method described in “3-1 Method” above, a solution containing each enantiomer (S(+) form or R(−) form) of MA5 was orally administered to male cynomolgus monkeys at a single dose of 100 mg/kg, the concentration of each enantiomer of MA5 and the concentration of a reduced metabolite of each enantiomer of MA5 (the compound represented by formula (B) [that is, Red-MA5]) in plasma were measured.

SMILES | fluorescence intensity of γH2AX (phosphorylated H2AX) [1] | reduced metabolite (Red-MA5) in plasma [2] | concentration in plasma after oral administration [2]
O=C(C[C@@H](C(=O)O)c1c[nH]c2ccccc12)c1ccc(F)cc1F [R(−) form of MA5, 4-(2,4-difluorophenyl)-2-(1H-indol-3-yl)-4-oxo-butanoic acid] | not observed | detected | –
O=C(C[C@H](C(=O)O)c1c[nH]c2ccccc12)c1ccc(F)cc1F [S(+) form of MA5, 4-(2,4-difluorophenyl)-2-(1H-indol-3-yl)-4-oxo-butanoic acid] | a decrease in the fluorescence intensity of phosphorylated H2AX was observed; also recorded: the level of γH2AX was low | almost no reduced metabolite was detected | higher than that of the R(−) form of MA5 in plasma
